Data on 1 compound can be found in patent US20060058299A1, “N-2s-4-3,4-difluorobenzyl morpholin-2yl methyl -2-(3-methylsulphonyl amino!phenyl acetamide as ccr3 antagonist for the treatment of inflammatory conditions” (priority 2002, published 2006).

One test addresses T1, CCR-3 (Homo sapiens, UniProt P51677).
T1 construct: expressed in transfected cells; membranes)
T1 sequence (P51677 1-355): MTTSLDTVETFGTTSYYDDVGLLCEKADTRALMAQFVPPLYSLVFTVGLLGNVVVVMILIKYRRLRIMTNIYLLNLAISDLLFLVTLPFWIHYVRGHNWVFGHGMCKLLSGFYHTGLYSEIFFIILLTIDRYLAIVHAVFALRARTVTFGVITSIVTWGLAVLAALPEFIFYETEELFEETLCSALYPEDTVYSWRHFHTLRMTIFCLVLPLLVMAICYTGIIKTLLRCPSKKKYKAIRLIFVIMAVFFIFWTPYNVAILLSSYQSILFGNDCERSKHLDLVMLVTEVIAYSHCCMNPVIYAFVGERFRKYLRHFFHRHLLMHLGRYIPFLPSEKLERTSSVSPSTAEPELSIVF
Kind of test: CCR-3 competition binding SPA ([125I]eotaxin). Particulars: membranes from K562 cells stably expressing CCR-3; 20 pM [125I]eotaxin; mean of at least two experiments; read-out: pIC50 (inhibition of [125I]eotaxin binding) (converted). The method, then: A CCR-3 competition binding SPA (scintillation proximity assay) was used to assess the affinity of novel compounds for CCR-3. Membranes prepared from K562 cells stably expressing CCR-3 (2.5 μg/well) were mixed with 0.25 mg/well wheat-germ agglutinin SPA beads (Amersham) and incubated in binding buffer (HEPES 50 mM, CaCl2 1 mM, MgCl2 5 mM, 0.5% BSA) at 4° C. for 1.5 hr. Following incubation, 20 pM of [^125I] eotaxin (Amersham) and increasing concentrations of compound (1 pM to 30 μM) were added and incubated in a 96 well plate for 2 hr at 22° C. then counted on a Microbeta plate counter. The total assay volume was 100 μl. Competition binding data were analysed by fitting the data with a four parameter logistic equation. Data are presented as the mean pIC50 values (negative logarithm of the concentration of compound which inhibits [^125I]eotaxin binding by 50%) from at least two experiments.

Test [1] concerns the target eosinophils purified from human peripheral blood. The test can be described thus: Eosinophil chemotaxis assay (eotaxin-induced). Particulars: agonist eotaxin at EC80 concentration. In kind it is cell-based. How it is done:
(b) Eosinophil Chemotaxis Assay.
The compound was evaluated for its inhibitory effect on eosinophil chemotaxis. Eosinophils were purified from human peripheral blood by standard CD16 cell depletion using a Miltenyi cell separation column and a magnetic Super Macs magnet as previously described (Motegi & Kita, 1998; J. Immunology. 161:4340-6). Cells were re-suspended in RPMI 1640/10% FCS solution and incubated with calcein-AM (Molecular Probes) at 37° C. for 30 mins. Following incubation, the eosinophils were centrifuged at 400 g for 5 min and re-suspended in RPMI/FCS at 2.2 million/ml. Cells were then incubated in the presence of increasing concentration of compounds (1 pM to 30 μM) at 37° C. for 30 mins. For control responses cells were incubated with RPMI/FCS only. The agonist eotaxin (an EC80 concentration) was added to the lower chamber of a 96 well chemotaxis plate (5 μm filter. Receptor Technologies). Eosinophils (50 μl of 2 million/ml cells) were added to the top chamber of the filter plate and incubated at 37° C. for 45 mins. Cells remaining on top of the chemotaxis filter were removed and the number of eosinophils which had migrated were quantified by reading the plate on a fluorescent plate reader. Inhibition curves for the effect of compounds on eosinophil chemotaxis were analysed by fitting the data with a four parameter logistic equation. […]

Molecules are shown by their SMILES.

For `CS(=O)(=O)Nc1cccc(CC(=O)NC[C@H]2CN(Cc3ccc(F)c(F)c3)CCO2)c1` [Example 1, N-{[(2S)-4-(3.4-difluorobenzyl)morpholin-2-yl]methyl}-2-{3-[(methylsulfonyl)amino]phenyl}acetamide], the IC50 at CCR-3 is 10 nM. Moreover, the “fpKi (functional pKi, eosinophil chemotaxis)” value in test [1] was found to be 8.4.
